# Source: patent publication US20220016200A1, “PHARMACEUTICAL COMPOSITION FOR THE TREATMENT OF CYSTIC FIBROSIS” (GALENUS G.H. AG, priority 2018, published 2022)
# Bridge positions count the residues as written; N and C are the ends. Square brackets hold non-standard residues; d marks the D form. Peptide text beside a SMILES is read from it. * marks the point of attachment. Heptanoyl(5-Me) = CCC(C)CCCC(=O)*; Dab = NCC[C@H](N)C(=O)O
# Columns and labels:
# A. nosocomialis 1461911 [1] = test: Checkerboard colistin sulphate (CS) plus teicoplanin (TP), MIC/FIC and MBC/FBC; format: cell-based, Acinetobacter nosocomialis
# Procedure: (§1) Checkerboard analysis to determine minimal inhibitory concentration (MIC)/fractional inhibitory concentration (FIC) and minimal […] (MBC)/fractional […] (FBC) values of colistin sulphate (CS) plus teicoplanin (TP) for 6 Gram-negative strains with a bacterial load 5(1-10)*10^5 CFU/ml in a cation-adjusted Mueller-Hinton broth (CAMHB). • a. Antimicrobial stock solutions were prepared using sterile distilled water • b. CS was added along the ordinate; TP was added along the abscissa to 96 well, flat bottom, polystyrene panels with no treatment. Colistin alone was tested in triplicates. • c. Serial 2-fold dilutions starting with 640 μg/ml CS and 640 μg/ml TP were made; 15 μl volume of the serial dilutions were added for each agent to the appropriate wells; final volume at 30 μl • d. For each agent tested alone an additional 15 μl media was added to the well. 30 μl were added in control wells where none of the agent was tested. The negative control well contains 150 μl media without any additions • e. From an overnight bacterial culture in tryptic soy broth, 100 μL was added to 10 mL of fresh tryptic soy broth. This was then incubated at 37° C. for 1.5 hour at 180 rpm. • f. Bacteria in 120 μl CAMHB were added to each well (end concentration 5(1-10)*10^5 CFU/ml) • g. Plates were incubated at 37° C. in an ambient air incubator for 24 h • h. Turbidity at OD600 is determined with a plate photometer • i. By using a one-time inoculator 3 μl from each well of the 96-well plate were transferred to three blood agar plates. The plates were incubated over night at 37° C. in an ambient air incubator • j. MIC values are defined as lowest concentration which restricts bacterial growth to OD600 ≤0.1 • k. MBC values were determined by visual reading the lowest concentration which inhibits 99.9% of the growth of bacteria in the wells • l. Determination of the fractional inhibitory concentration (FIC) index and fractional bactericidal concentration (FBC) index and characterization of antimicrobial interactions was assessed […]
# (§2) FIC calculation was carried out as: (MIC of drug A, tested in combination)/(MIC of drug A, tested alone)+(MIC of drug B, tested in combination)/(MIC of drug B, tested alone). FBC calculation was carried out just as well […]
# (§3) Interactive categories were calculated from checkerboard analysis using MIC results from testing each agent alone and MIC results from the combination wells adjacent to the wells with growth in them […]
# b. Indifference; FIC/FBC>0.5 to<4.0 c. Antagonism; FIC/FBC≥4.0 b. A. nosocomialis 1461911 (IHMA), colistin resistant
# S. maltophilia 1221783 = test: Checkerboard fusidic acid (FD) and colistin sulfate (CS), MIC/FIC; format: cell-based, Stenotrophomonas maltophilia; details: agent alone, CAMHB, 1*10^6 CFU/ml, 24 h
# Procedure: Checkerboard assays between fusidic acid (FD) and colistin sulfate (CS) with a bacterial load 5(1-10)*10^5 CFU/ml in cationic adapted Mueller Hinton broth (CAMHB). • a. Antimicrobial stock solutions were prepared using sterile distilled water; • b. CS was added along the ordinate; FD was added along the abscissa to 96 well, flat bottom, polystyrene panels with no treatment. Colistin alone was tested in triplicates; • c. Serial 2-fold dilutions starting with 640 […] CS and 640 μg/ml FD were made; 15 μl volume of the serial dilutions were added for each agent to the appropriate wells—final volume at 30 μl; • d. For each agent tested alone an additional 15 μl media was added to the well. 30 μl were added in control wells where none of the agent was tested. […] Turbidity at OD600 is determined with a plate photometer • i. […] Determination of the fractional inhibitory concentration (FIC) index and fractional bactericidal concentration (FBC) index and characterization of antimicrobial interactions was assessed; […]
# (§4) Interactive categories were calculated from checkerboard analysis using MIC results from testing each agent alone and MIC results from the combination wells adjacent to the wells with growth in them.
# Determination of the fractional inhibitory concentration (FIC) index and fractional bactericidal concentration (FBC) index and characterization of antimicrobial interactions was assessed: […]
# A. nosocomialis 1461911 [2] = test: Checkerboard fusidic acid (FD) and colistin sulfate (CS), MIC/FIC and MBC/FBC; format: cell-based, Acinetobacter nosocomialis
# Procedure: (§5) Checkerboard assays between fusidic acid (FD) and colistin sulfate (CS) with a bacterial load 5(1-10)*10^5 CFU/ml in cationic adapted Mueller Hinton broth (CAMHB). • a. Antimicrobial stock solutions were prepared using sterile distilled water; • b. CS was added along the ordinate; FD was added along the abscissa to 96 well, flat bottom, polystyrene panels with no treatment. Colistin alone was tested in triplicates; • c. Serial 2-fold dilutions starting with 640 […] CS and 640 μg/ml FD were made; 15 μl volume of the serial dilutions were added for each agent to the appropriate wells—final volume at 30 μl; • d. For each agent tested alone an additional 15 μl media was added to the well. 30 μl were added in control wells where none of the agent was tested. The negative control well contains 150 μl media without any additions; • e. From an overnight bacterial culture in tryptic soy broth, 100 μL was added to 10 mL of fresh tryptic soy broth. This was then incubated at 37° C. for 1.5 hour at 180 rpm; • f. Bacteria in 120 μl CAMHB were added to each well (end concentration 5(1-10)*10^5 CFU/ml); • g. Plates were incubated at 37° C. in an ambient air incubator for 24 h • h. Turbidity at OD600 is determined with a plate photometer • i. By using a one-time inoculator 3 μl from each well of the 96-well plate were transferred to three blood agar plates. The plates were incubated over night at 37° C. in an ambient air incubator; • j. MIC values are defined as lowest concentration which restricts bacterial growth to OD600≤0.1; • k. MBC values were determined by visual reading the lowest concentration which inhibits 99.9% of the growth of bacteria in the wells; • l. Determination of the fractional inhibitory concentration (FIC) index and fractional bactericidal concentration (FBC) index and characterization of antimicrobial interactions was assessed;
# (§6) FIC calculation was carried out as: (MIC of drug A, tested in combination)/(MIC of drug A, tested alone)+(MIC of drug B, tested in combination)/(MIC of drug B, tested alone). FBC calculation was carried out just as well;
# as §4
# (§7) Determination of the fractional inhibitory concentration (FIC) index and fractional bactericidal concentration (FBC) index and characterization of antimicrobial interactions was assessed:
# (§8) (ii) Indifference; FIC/FBC>0.5 to <4.0
# (§9) (iii) Antagonism; FIC/FBC≥4.0
# b. Acinetobacter nosocomialis 1461911 (IHMA), colistin resistant (3xCS 4/8)
# A. guillouiae 1285286 = test: Checkerboard colistin sulphate (CS) plus teicoplanin (TP), MIC/FIC and MBC/FBC; format: cell-based, Acinetobacter guillouiae; details: Acinetobacter guillouiae, agent alone, CAMHB, 5*10^5 CFU/ml
# Procedure: as §1, §2, §3
# b. Indifference; FIC/FBC>0.5 to<4.0 c. Antagonism; FIC/FBC≥4.0 d. A. guillouiae 1285286 (IHMA), colistin resistant
# A. haemolyticus 1655843 = test: Checkerboard fusidic acid (FD) and colistin sulfate (CS), MIC/FIC and MBC/FBC; format: cell-based, Acinetobacter haemolyticus; details: agent alone, CAMHB, 1*10^6 CFU/ml
# Procedure: as §5, §6, §4, §7, §8, §9
# c. Acinetobacter haemolyticus 1655843 (IHMA), colistin resistant (3xCS>16/>16-64/>64)
# A. junii 1397597 = test: Checkerboard colistin sulphate (CS) plus teicoplanin (TP), MIC/FIC and MBC/FBC; format: cell-based, Acinetobacter junii; details: Acinetobacter junii, 1397597; A. junii; agent alone; CAMHB, 5*10^5 CFU/ml; read-out: MBC
# Procedure: as §1, with “MIC values are defined as lowest concentration which restricts bacterial growth to OD600 ≤0.1 • k. MBC values were determined by visual reading the lowest concentration which inhibits 99.9% of the growth of bacteria in the wells • l.” left out
# as §3
smiles,measurement,setting,value
"CCC(C)CCCC(=O)N[C@@H](CCN)C(=O)N[C@H](C(=O)N[C@@H](CCN)C(=O)N[C@H]1CCNC(=O)[C@H]([C@@H](C)O)NC(=O)[C@H](CCN)NC(=O)[C@H](CCN)NC(=O)[C@H](CC(C)C)NC(=O)[C@@H](CC(C)C)NC(=O)[C@H](CCN)NC1=O)[C@@H](C)O (stereo partly drawn) [CS, colistin sulphate] ({Heptanoyl(5-Me)}-[Dab]T[Dab][Dab][Dab][dL]L[Dab][Dab]T; lactam 4-C)",MIC,"A. nosocomialis 1461911 [1]; Acinetobacter nosocomialis, 1461911, colistin resistant A. nosocomialis strain 1461911 IHMA, as stated for the mouse model, read-out: MIC",4 µg/mL
same,MBC,"A. nosocomialis 1461911 [1]; Acinetobacter nosocomialis, 1461911, A. nosocomialis, agent alone, CAMHB, 5*10^5 CFU/ml, read-out: MBC",8 µg/mL
same,MIC,S. maltophilia 1221783,0.5 mg/1l
same,MIC,"A. nosocomialis 1461911 [2]; A. nosocomialis 1461911, agent alone, CAMHB, 1*10^6 CFU/ml, 24 h",4 mg/1l
same,MBC,"A. nosocomialis 1461911 [2]; Acinetobacter nosocomialis, A. nosocomialis 1461911, agent alone, CAMHB, 1*10^6 CFU/ml",8 µg/mL
same,MIC,"A. nosocomialis 1461911 [2]; organism list of Example 3, Acinetobacter nosocomialis 1461911, 3x, read-out: Colistin CS MIC",4 µg/mL
same,MBC,"A. guillouiae 1285286; 1285286, A. guillouiae, read-out: MBC",4 µg/mL
same,MIC,"A. guillouiae 1285286; A. guillouiae 1285286, 24 h, read-out: MIC",2 µg/mL
same,MIC,"A. haemolyticus 1655843; A. haemolyticus 1655843, 24 h",64 mg/1l
same,MBC,"A. haemolyticus 1655843; Acinetobacter haemolyticus, 1655843, A. haemolyticus 1655843",> 64 µg/mL
same,MBC,A. junii 1397597,8 µg/mL
